Reference: patent US9193728B2, “Fused tetracyclic pyrido [4,3-B] indole and pyrido [3,4-B] indole derivatives and methods of use” (Medivation Technologies, Inc., priority 2010, dated 2015)

Tests used:
[1] = target: T1, human recombinant adrenergic α2C receptor (Homo sapiens, UniProt P18825); assay: Adrenergic α2C radioligand binding ([3H]MK-912); settings: compound at 0.1 μM; for inhibition at 0.1 µM: read-out: Adrenergic (0.1 μM) a2C, percentage inhibition of ligand binding
T1 construct: expressed in transfected cells; host or cells: insect Sf9 cells
T1 sequence (P18825 1-462): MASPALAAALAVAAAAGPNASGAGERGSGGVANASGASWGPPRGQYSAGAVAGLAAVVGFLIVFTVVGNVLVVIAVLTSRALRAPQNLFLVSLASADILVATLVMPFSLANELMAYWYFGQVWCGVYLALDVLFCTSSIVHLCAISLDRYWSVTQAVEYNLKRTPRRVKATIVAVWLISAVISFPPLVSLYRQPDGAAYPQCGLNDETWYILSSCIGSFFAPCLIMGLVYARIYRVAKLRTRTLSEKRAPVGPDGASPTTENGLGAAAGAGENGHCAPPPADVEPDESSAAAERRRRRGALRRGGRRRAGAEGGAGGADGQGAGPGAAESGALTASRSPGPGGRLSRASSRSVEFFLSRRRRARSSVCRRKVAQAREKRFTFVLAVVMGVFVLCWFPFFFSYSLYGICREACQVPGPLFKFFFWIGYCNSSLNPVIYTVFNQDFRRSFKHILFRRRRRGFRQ
Experimental: To evaluate in radioligand binding assays the activity of compounds of the invention, human recombinant adrenergic α2C receptor expressed in insect Sf9 cells (Uhlen, S. et al, J. Pharmacol. Exp. Ther. 271:1558, 1994) in a modified Tris-HCl buffer (50 mM Tris-HCl, pH 7.4, 12.5 mM MgCl2, 2 mM EDTA) was used. Compounds of the invention were incubated with 1 nM [^3H]MK-912 for 60 min. at 25° C. Non-specific binding was estimated in the presence of 10 μM WB-4101. Receptor proteins were filtered and washed, the filters were then counted to determine [^3H]MK-912 specifically bound. Compounds were screened at 1 μM or lower, using 1% DMSO as vehicle. Biochemical assay results are presented as the percent inhibition of specific binding in Table 3.

[2] = target: T2, rat adrenergic α1A receptor (Rattus norvegicus, UniProt P43140); assay: Adrenergic α1A radioligand binding ([3H]Prazosin); settings: compound at 0.1 μM; for inhibition at 0.1 µM: read-out: Adrenergic (0.1 μM) a1A, percentage inhibition of ligand binding
T2 construct: rat adrenergic α1A receptor obtained from Wistar Rat submaxillary glands; from tissue; host or cells: Wistar rat submaxillary glands
T2 sequence (P43140 1-466): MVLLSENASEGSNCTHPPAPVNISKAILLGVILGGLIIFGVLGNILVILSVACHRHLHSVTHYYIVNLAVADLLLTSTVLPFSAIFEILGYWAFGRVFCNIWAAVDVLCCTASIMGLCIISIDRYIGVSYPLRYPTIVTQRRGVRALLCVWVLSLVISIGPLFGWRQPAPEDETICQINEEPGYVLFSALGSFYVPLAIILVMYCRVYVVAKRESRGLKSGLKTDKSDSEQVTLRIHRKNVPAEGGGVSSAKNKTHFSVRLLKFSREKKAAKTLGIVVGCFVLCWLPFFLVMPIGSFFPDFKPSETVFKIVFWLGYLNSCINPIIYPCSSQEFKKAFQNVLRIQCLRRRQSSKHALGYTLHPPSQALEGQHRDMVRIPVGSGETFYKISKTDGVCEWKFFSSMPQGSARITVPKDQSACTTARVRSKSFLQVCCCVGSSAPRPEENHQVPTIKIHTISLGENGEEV
Experimental: To evaluate in radioligand binding assays the activity of compounds of the invention, rat adrenergic α1A receptor obtained from Wistar Rat submaxillary glands (Michel, A. et al, Br. J. Pharmacol. 98:883, 1989) in a modified Tris-HCl buffer (50 mM Tris-HCl buffer, pH 7.4, 0.5 mM EDTA) was used. Compounds of the invention were incubated with 0.25 nM [^3H]Prazosin for 60 min. at 25° C. Non-specific binding was estimated in the presence of 10 μM phentolamine. Receptor proteins were filtered and washed, the filters were then counted to determine [^3H]Prazosin specifically bound. Compounds of the invention were screened at 1 μM or lower, using 1% DMSO as vehicle. Biochemical assay results are presented as the percent inhibition of specific binding in Table 3.

[3] = target: T3, human recombinant serotonin (5-Hydroxytryptamine) 5-HT5A receptor (Homo sapiens, UniProt P47898); assay: Serotonin 5-HT5A radioligand binding ([3H]LSD); settings: compound at 0.1 μM; for inhibition at 0.1 µM: read-out: Serotonin (0.1 μM) 5-HT5A, percentage inhibition of ligand binding
T3 construct: expressed in transfected cells; host or cells: CHO-K1
T3 sequence (P47898 whole entry): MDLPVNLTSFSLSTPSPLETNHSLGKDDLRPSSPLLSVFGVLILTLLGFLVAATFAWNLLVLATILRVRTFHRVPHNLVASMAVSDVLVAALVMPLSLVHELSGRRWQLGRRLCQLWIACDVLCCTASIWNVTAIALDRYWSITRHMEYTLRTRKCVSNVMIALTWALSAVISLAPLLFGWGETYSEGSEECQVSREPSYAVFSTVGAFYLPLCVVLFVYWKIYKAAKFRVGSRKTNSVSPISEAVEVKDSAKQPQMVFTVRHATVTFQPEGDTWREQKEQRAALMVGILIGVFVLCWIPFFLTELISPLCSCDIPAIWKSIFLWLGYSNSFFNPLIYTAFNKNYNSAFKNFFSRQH
Experimental: To evaluate in radioligand binding assays the activity of compounds of the invention, human recombinant serotonin (5-Hydroxytryptamine) 5-HT5A receptor expressed in Chinese hamster ovary (CHO)-K1 cells (Rees, S. et al, FEBS Lett. 355:242, 1994) in a modified Tris-HCl buffer (50 mM Tris-HCl, pH 7.4, 10 mM MgCl2, 0.5 mM EDTA) was used. Compounds of the invention were incubated with 1.7 nM [^3H]Lysergic acid diethylamide (LSD) for 60 min. at 37° C. Non-specific binding was estimated in the presence of 100 μM Serotonin (5-HT). Receptor proteins were filtered and washed, the filters were counted to determine [^3H]LSD specifically bound. Compounds were screened at 1 μM or lower, using 1% DMSO as vehicle. Biochemical assay results are presented as the percent inhibition of specific binding in Table 4.

[4] = target: T4, human recombinant serotonin (5-Hydroxytryptamine) 5-HT2C receptor (Homo sapiens, UniProt P28335); assay: Serotonin 5-HT2C radioligand binding ([3H]Mesulergine); settings: for inhibition at 0.1 µM / Serotonin (0.1 μM) 5-HT2C, percentage inhibition of ligand binding: compound at 0.1 μM; for inhibition at 0.1 µM: read-out: Serotonin (0.1 μM) 5-HT2C, percentage inhibition of ligand binding
T4 construct: expressed in transfected cells; host or cells: CHO-K1
T4 sequence (P28335 33-458): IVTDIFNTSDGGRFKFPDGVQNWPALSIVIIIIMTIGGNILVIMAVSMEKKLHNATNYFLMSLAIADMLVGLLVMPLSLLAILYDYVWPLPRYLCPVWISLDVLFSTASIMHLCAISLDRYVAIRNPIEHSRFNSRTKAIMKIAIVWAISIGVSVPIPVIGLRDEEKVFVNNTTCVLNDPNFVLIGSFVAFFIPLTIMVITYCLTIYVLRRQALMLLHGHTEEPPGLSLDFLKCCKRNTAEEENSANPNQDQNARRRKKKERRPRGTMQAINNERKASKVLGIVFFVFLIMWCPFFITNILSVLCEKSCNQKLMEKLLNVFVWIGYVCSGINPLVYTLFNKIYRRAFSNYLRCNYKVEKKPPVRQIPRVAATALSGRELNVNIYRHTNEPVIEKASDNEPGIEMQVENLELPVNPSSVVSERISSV
Experimental: To evaluate in radioligand binding assays the activity of compounds of the invention, human recombinant serotonin (5-Hydroxytryptamine) 5-HT2C receptor expressed in Chinese hamster ovary (CHO)-K1 cells (Wolf, W. et al, J. Neurochem. 69:1449, 1997) in a modified Tris-HCl buffer (50 mM Tris-HCl, pH 7.4, 0.1% Ascorbic Acid, 10 μM Pargyline) was used. Compounds of the invention were incubated with 1 nM [^3H]Mesulergine for 60 min. at 25° C. Non-specific binding was estimated in the presence of 1 μM Mianserin. Receptor proteins were filtered and washed, the filters were then counted to determine [^3H]Mesulergine specifically bound. Compounds were screened at 1 μM or lower, using 1% DMSO as vehicle. Biochemical assay results are presented as the percent inhibition of specific binding in Table 4.

What does the source list for `Cc1cc2c3c(c1)c1c(n3C[C@](C)(c3ccncc3)O[C@H]2C)CCN(C)C1` [Compound 163]?
inhibition at 0.1 µM [1]: 12%; inhibition at 0.1 µM [2]: -17%; inhibition at 0.1 µM [3]: 10%; inhibition at 0.1 µM [4]: 5%

`Cc1cc2c3c(c1)c1c(n3CC(c3ccc(F)cc3)C2)CCN(C)C1` (centres unmarked) [Compound 3] was tested. Which inhibition at 0.1 µM [4] did it give?
Its inhibition at 0.1 µM is 54%.

What about the inhibition at 1 µM ([4]; compound at 1 μM, read-out: Serotonin (1 μM) 5-HT2C, percentage inhibition of ligand binding) of the same compound?
Its inhibition at 1 µM is 95%.

How did the inhibition at 0.1 µM [1] turn out when `Cc1cc2c3c(c1)c1c(n3C[C@@](C)(c3ccncc3)O[C@H]2C)CCN(C)C1` [Compound 162] was run?
The inhibition at 0.1 µM was 13%.

What about the inhibition at 0.1 µM [2] of the same compound?
Its inhibition at 0.1 µM is -3%.

What about the inhibition at 0.1 µM [3] of the same compound?
The inhibition at 0.1 µM was 16%.

And the inhibition at 0.1 µM [4]?
Its inhibition at 0.1 µM is 6%.

How did the inhibition at 0.1 µM [1] turn out when `Cc1cc2c3c(c1)c1c(n3CC(C)(c3ccc(C)nc3)OC(C)C2)CCN(C)C1` (centres unmarked) [Compound 160] was run?
Its inhibition at 0.1 µM is 16%.

What about the inhibition at 0.1 µM [2] of the same compound?
Its inhibition at 0.1 µM is -5%.

What about the inhibition at 0.1 µM [3] of the same compound?
Its inhibition at 0.1 µM is 2%.

What about the inhibition at 0.1 µM [4] of the same compound?
Its inhibition at 0.1 µM is 7%.

Which results are given for `Cc1cc2c3c(c1)c1c(n3CC(C)(c3ccc(C)nc3)OC2C)CCN(C)C1` (centres unmarked) [Compound 164]?
Adrenergic (0.1 μM) a2C, percentage inhibition of ligand binding [1]: −4%; Adrenergic (0.1 μM) a1A, percentage inhibition of ligand binding [2]: −7%; Serotonin (0.1 μM) 5-HT5A, percentage inhibition of ligand binding [3]: −22%; Serotonin (0.1 μM) 5-HT2C, percentage inhibition of ligand binding [4]: 2%

How did the inhibition at 0.1 µM [1] turn out when `Cc1cc2c3c(c1)c1c(n3CC(C)(c3ccncc3)OC(C)C2)CCN(C)C1` (centres unmarked) [Compound 165] was run?
The inhibition at 0.1 µM was 20%.

And the inhibition at 0.1 µM [2]?
The inhibition at 0.1 µM was 11%.

And the inhibition at 0.1 µM [3]?
The inhibition at 0.1 µM was 16%.

What about the inhibition at 0.1 µM [4] of the same compound?
Its inhibition at 0.1 µM is 14%.

Which “Adrenergic (0.1 μM) a2C, percentage inhibition of ligand binding” value [1] does the source give for `Cc1cc2c3c(c1)c1c(n3CC(C)(c3ccc(C)nc3)OC2C)CCN(C)C1` (centres unmarked) [Compound 161] here?
The value was 3%.

What about the “Adrenergic (0.1 μM) a1A, percentage inhibition of ligand binding” value [2] of the same compound?
Its value is −8%.

And the “Serotonin (0.1 μM) 5-HT5A, percentage inhibition of ligand binding” value [3]?
The value was 4%.

And the “Serotonin (0.1 μM) 5-HT2C, percentage inhibition of ligand binding” value [4]?
The value was −4%.
